From patent publication US7166296B2, “Pharmaceutical formulations and ligands for use therein; mimetics for UEA-1” (Sarlan, Ltd., priority 2001, dated 2007)
Values after ≈ are worked out from the molar mass of the structure shown.

Experiments:
Design in all cases: species or system human
[1] = system: UEA-1 binding sites on Caco-2 cell membrane preparations; assay: Two tier competition assay: compound incubated alone with membranes, biotinylated UEA-1 added in next step; details: for Avg % Inhibition / Av % Inhibition: Two Tier Assay; for Avg % Inhibition: library MSI 26; for Av % Inhibition: library MSI 22
How it was run: (§1)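 Plates coated with Caco-2 membrane preparation (10 μg/ml, carbonate buffer pH 9.6) and BSA-blocked. Single tier: compound and biotinylated UEA-1 incubated together overnight. Two tier: compound incubated overnight with membranes first, biotinylated UEA-1 added next. Bound UEA-1 detected by streptavidin-HRP/OPD, OD490.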

[2] = system: UEA-1 binding sites on Caco-2 cell membrane preparations; assay: Competition assay of biotinylated UEA-1 binding, tier (single/two) not given; details: tier not printed, library TPI 1066
Protocol: The epithelial cell binding ability of compounds and mixtures obtained from synthetic combinatorial libraries was determined by competition assays. These assays were set up to measure the inhibition of binding of biotinylated UEA-1 to membrane preparations of the epithelial cell line Caco-2 (colon carcinoma cells-2), by compounds and mixtures of the combinatorial libraries. This cell line is a conventional model for epithelial cells.
Two competition inhibition assays were used in this case, namely single tier and two tier assays. These assays differed from each other in that in the single tier assay, the mixtures/compounds and the biotinylated UEA-1 were incubated together with the Caco-2 cell membrane preparations, while in case of the two-tier assay, the mixture/compounds were allowed to incubate alone with the cell membranes in the absence of biotinylated UEA-1, which was added in the next step. Addition of the extra step in the two-tier assay was to ensure that the compounds inhibiting the binding of biotinylated UEA-1 to the Caco-2 cell membranes were doing so by themselves binding to surface receptors on the Caco-2 cells and not to the biotinylated UEA-1. Each assay will be described in detail.
• 1. Confluent Caco-2 cell monolayers (grown in 75 cm^2 flasks for up to 1 week at 37° C. and 5% CO2) were washed twice in Dulbecco's PBS (DPBS). • 2. Cell monolayers were treated with 10 mM EDTA-DPBS for 5–10 min at 37° C. and cells were harvested by centrifugation at 1000 rpm for 5 min. • 3. Cells were washed 3 times in DPBS. • 4. […] The cells were homogenised for 30 sec. • 6. The homogenates were centrifuged in hard walled tubes at 40,000 rpm for 45 min at 4° C. • 7. […] The supernatant was removed and stored on ice. The procedure was repeated adding the second supernatant to the first. • 8. The protein concentration was determined using e.g. a Bio-Rad protein assay. • 9. All fractions were stored at −80° C. prior to use. Single Tier Assays: • 1. 96-well microtiter plates were coated with membrane preparations of Caco-2 cells either by allowing them to incubate on the plates for 2½ hours at room temperature or by incubating them overnight at 4° C. 100 μl of 10 μg/ml (in 0.05 M carbonate buffer, pH 9.6) of membrane preparation was added to each well. • 2. The plates were flicked out, patted dry and blocked with bovine serum albumin (BSA)/DPBS (200 μl/well) for 1 to 4 hours at room temperature after which they were washed three times in water. • 3. […] Control wells were also set up in which the Caco-2 cell membrane preparations were incubated with unconjugated UEA-1. […] Following overnight incubation the plates were washed thoroughly (3–6 times). The plates were flicked out, patted dry and biotinylated UEA-1 was detected with commercial Streptavidin conjugated to horseradish peroxidase (HRP) (CalBiochem). […] The plates were left to incubate for an hour at room temperature. • 6. The plates were then washed 3–6 times and the biotin-streptavidin binding was detected by adding an HRP substrate OPD (orthophenyl diamine) to each well. 100 μl/well of this substrate at a final concentration of 1.6 mg/ml was added to each well. Before adding to the wells, this substrate was activated by addition of 50 μl of 3% H2O2 per plate and the reaction was allowed to develop in the dark. • 7. The reaction was stopped by adding 50 μl of 4 N H2SO4 to each well after approximately 5–10 minutes or when sufficient colour had developed. The OD490 (absorbance at 490 nm) of each well was measured using a conventional 96 well plate reading spectrophotometer. Two Tier Assays: • 1. 96 well plates were coated with Caco-2 cell membrane preparations in the same manner as described in the single tier assay. • 2. […] 100 μl at these final concentrations were added to each well. • 4. The plates were then left to incubate overnight, a step that would allow the mixtures and compounds to interact with the Caco-2 cell membranes without the presence of the competitor (biotinylated UEA-1) itself. • 5. […]

[3] = system: UEA-1 binding sites on Caco-2 cell membrane preparations; assay: Single tier competition assay: inhibition of biotinylated UEA-1 binding, compound and biotinylated UEA-1 incubated together; details: for Avg % Inhibtion / Av % Inhibition: Single Tier Assay; for Avg % Inhibtion: library MSI 26; for Av % Inhibition: library MSI 22
How it was run: as §1

[4] = library MSI 27, read-out: Two Tier Assay IC50
[5] = 50 μg/ml, first pair of columns
[6] = 50 μg/ml, second pair of columns
[7] = 250 μg/ml, first pair of columns
[8] = 250 μg/ml, second pair of columns
[9] = library MSI 27, read-out: Single Tier Assay IC50
[10] = Table 8, galloyl constructs, read-out: IC 50 (uM) 2nd tier
[11] = Table 8, galloyl constructs, read-out: IC 50 (uM) 1st tier (converted)

SMILES	IC50 [1, 4]	IC50 [3, 9]	Two Tier Assay IC50 ([1]; library MSI 27)	Av % Inhibition [2, 5]	Av % Inhibition [2, 6]	Av % Inhibition [2, 7]	Av % Inhibition [2, 8]	further results
COc1ccc(C(=O)O)cc1OC [compound 26, 3,4-Dimethoxybenzoic acid]	112 µM	163 µM	85.62 µg/mL	−116%	39%	−2%	56%	Single Tier Assay IC50 ([3]; library MSI 27): 125.00 µg/mL
COc1cc(C(=O)O)cc(OC)c1OC [compound 20, 3,4,5-trimethoxybenzoic acid]	212 µM	212 µM		−121%	52%	24%	75%	
COc1ccc(C(=O)O)cc1OC [compound 10, 3,4-Dimethoxybenzoic acid]	356 µM	711 µM	125.00 µg/mL	−65%	24%	41%	66%	
CCCCCCCCCCCCOC(=O)c1cc(O)c(O)c(O)c1 [Lauryl gallate, reference compound]								Avg % Inhibition ([1]; 62.5 μg/ml): 20.4%; Avg % Inhibition ([1]; 250 μg/ml): 47.9%; Avg % Inhibtion ([3]; 62.5 μg/ml): 39.1%; Avg % Inhibtion ([3]; 250 μg/ml): 22.5%
CC(=O)NC(CCNC(=O)c1cc(O)c(O)c(O)c1)C(=O)NC(CCNC(=O)c1cc(O)c(O)c(O)c1)C(=O)NC(CCNC(=O)c1cc(O)c(O)c(O)c1)C(N)=O (centres unmarked) [MSI 34 #14]								IC 50 (ug/ml) 2nd tier ([1]; Table 8, galloyl constructs): 1 µg/mL (≈ 1.23 µM); IC50 [1, 10]: 1 µM; IC 50 (ug/ml) 1st tier ([3]; Table 8, galloyl constructs): 2 µg/mL (≈ 2.45 µM); IC50 [3, 11]: 2 µM
NC(=O)C(CNC(=O)C(CNC(=O)c1cc(O)c(O)c(O)c1)NC(=O)c1cc(O)c(O)c(O)c1)NC(=O)C(CNC(=O)c1cc(O)c(O)c(O)c1)NC(=O)c1cc(O)c(O)c(O)c1 (centres unmarked) [MSI 34 1π5]								IC 50 (ug/ml) 2nd tier ([1]; Table 8, galloyl constructs): 1 µg/mL (≈ 1.13 µM); IC50 [1, 10]: 1 µM; IC 50 (ug/ml) 1st tier ([3]; Table 8, galloyl constructs): 0.5 µg/mL (≈ 0.566 µM); IC50 [3, 11]: 0.5 µM
CCOc1ccc(C[C@H](CNC)N(C)C[C@H](CC2CCCCC2)NC(=O)c2cc(OC)c(OC)c(OC)c2)cc1								Av % Inhibition ([1]; 62.5 μg/ml): 49.8%; Av % Inhibition ([1]; 250 μg/ml): 43.8%; Av % Inhibition ([3]; 62.5 μg/ml): −9%; Av % Inhibition ([3]; 250 μg/ml): −55.7%
Oc1cc(O)c2c(c1)O[C@H](c1cc(O)c(O)c(O)c1)[C@H](O)C2 [Epigallocatechin, reference compound]								Avg % Inhibition ([1]; 62.5 μg/ml): −12%; Avg % Inhibition ([1]; 250 μg/ml): −10%; Avg % Inhibtion ([3]; 62.5 μg/ml): 10.1%; Avg % Inhibtion ([3]; 250 μg/ml): 0%
NC(=O)C(CCNC(=O)c1cc(O)c(O)c(O)c1)NC(=O)C(CCNC(=O)c1cc(O)c(O)c(O)c1)NC(=O)c1cc(O)c(O)c(O)c1 (centres unmarked) [MSI 34 #10]								IC 50 (ug/ml) 2nd tier ([1]; Table 8, galloyl constructs): 0.7 µg/mL (≈ 1.04 µM); IC50 [1, 10]: 1 µM; IC 50 (ug/ml) 1st tier ([3]; Table 8, galloyl constructs): 0.6 µg/mL (≈ 0.891 µM); IC50 [3, 11]: 0.9 µM
CC(=O)NC(CCCCNC(=O)c1cc(O)cc(O)c1)C(=O)NC(CCCCNC(=O)c1cc(O)cc(O)c1)C(=O)NC(CCCCNC(=O)c1cc(O)cc(O)c1)C(N)=O (centres unmarked) [Cpd 56]	147 µM	147 µM	125.00 µg/mL					Single Tier Assay IC50 ([3]; library MSI 27): 125.00 µg/mL

Second part, led by results:

IC50 [1, 4]	IC50 [3, 9]	Two Tier Assay IC50 ([1]; library MSI 27)	SMILES	Av % Inhibition [2, 5]	Av % Inhibition [2, 6]	Av % Inhibition [2, 7]	Av % Inhibition [2, 8]	further results
284 µM	284 µM		O=C(O)c1ccc(O)cc1 [compound 23, 4-Hydroxybenzoic acid]	52%	39%	21%	59%	
412 µM	299 µM	171.90 µg/mL	O=C(O)c1cc(O)cc(O)c1 [compound 8, 3,5-dihydroxybenzoic acid]	59%	0%	85%	50%	Single Tier Assay IC50 ([3]; library MSI 27): 125.00 µg/mL
307 µM	307 µM		COc1cc(C(=O)O)cc(OC)c1O [compound 25, Syringic acid]	−173%	65%	66%	63%	
259 µM	333 µM	130.70 µg/mL	CCOC(=O)c1c(OC)cc(C(=O)O)cc1OC [compound 5, 4-ethoxycarbonyl-3,5-dimethoxybenzoic acid]	16%	39%	54%	51%	Single Tier Assay IC50 ([3]; library MSI 27): 168.10 µg/mL
